As a reminder, the IC50 is the concentration that inhibits the measured activity by half.

Sequence of POLRMT (O00411 42-1230): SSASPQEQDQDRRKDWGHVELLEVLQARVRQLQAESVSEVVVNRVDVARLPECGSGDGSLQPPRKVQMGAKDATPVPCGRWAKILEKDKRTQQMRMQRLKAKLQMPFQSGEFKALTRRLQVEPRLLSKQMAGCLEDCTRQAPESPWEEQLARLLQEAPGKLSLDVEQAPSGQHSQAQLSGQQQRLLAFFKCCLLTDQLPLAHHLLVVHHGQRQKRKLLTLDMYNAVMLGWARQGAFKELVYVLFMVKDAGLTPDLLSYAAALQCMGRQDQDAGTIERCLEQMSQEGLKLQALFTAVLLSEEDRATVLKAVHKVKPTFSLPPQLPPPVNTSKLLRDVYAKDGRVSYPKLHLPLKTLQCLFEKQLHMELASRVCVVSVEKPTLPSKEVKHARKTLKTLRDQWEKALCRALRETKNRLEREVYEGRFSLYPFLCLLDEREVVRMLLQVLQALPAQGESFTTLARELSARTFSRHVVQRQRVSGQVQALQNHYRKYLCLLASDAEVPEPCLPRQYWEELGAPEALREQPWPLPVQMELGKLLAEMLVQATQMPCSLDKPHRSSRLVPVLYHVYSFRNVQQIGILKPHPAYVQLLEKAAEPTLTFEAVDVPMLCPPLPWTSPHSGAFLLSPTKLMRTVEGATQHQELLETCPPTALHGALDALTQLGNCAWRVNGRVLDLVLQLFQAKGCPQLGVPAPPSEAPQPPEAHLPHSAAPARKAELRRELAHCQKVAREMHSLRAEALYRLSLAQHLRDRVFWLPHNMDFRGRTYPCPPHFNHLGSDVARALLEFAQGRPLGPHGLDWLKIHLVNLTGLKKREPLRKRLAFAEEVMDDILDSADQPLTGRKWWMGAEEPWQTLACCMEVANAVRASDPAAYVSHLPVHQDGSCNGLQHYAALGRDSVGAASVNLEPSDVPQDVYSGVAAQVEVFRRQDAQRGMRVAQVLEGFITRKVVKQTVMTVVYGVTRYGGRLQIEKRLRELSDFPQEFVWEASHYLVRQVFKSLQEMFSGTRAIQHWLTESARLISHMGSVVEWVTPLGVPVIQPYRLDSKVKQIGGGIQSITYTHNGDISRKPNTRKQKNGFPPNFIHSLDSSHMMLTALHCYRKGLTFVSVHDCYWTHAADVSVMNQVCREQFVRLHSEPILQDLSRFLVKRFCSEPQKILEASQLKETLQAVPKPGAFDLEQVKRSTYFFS

This assay deals with POLRMT (Homo sapiens (Human), UniProt O00411). Nature of the assay: homogeneous TR-FRET assay of mitochondrial transcription (inhibition of POLRMT). The assay is classed as biochemical. Particulars: 7.5 nM POLRMT, 15 nM TFB2M, 30 nM TFAM, 0.5 nM DNA template, 500 μM NTPs, 37° C. for 60 minutes. How it is done:
The ability of some compounds of the present invention to inhibit POLRMT were determined in a homogeneous TR-FRET Assay using high-throughput screening in a 384-well plate format. […] Detection of the product is facilitated by hybridization of two DNA-oligonucleotide probes to specific and adjacent sequences within the RNA product sequence. Upon annealing of the probes, two fluorophores are coupled directly to an acceptor nucleotide probe (ATTO647, 5′), or introduced via a coupled streptavidin with a biotinylated donor nucleotide probe (Europium cryptate) that is brought into sufficient proximity to serve as a fluorescence-donor-acceptor pair. Thus, a FRET signal at 665 nm is generated upon excitation at 340 nm.
The DNA template is restriction linearized proximal to the promotor 3′-end (pUC-LSP). […] No nucleotide triphosphate mix is added to negative control samples. Microplates with compounds to be tested in the assay are prepared from 10 mM compound stocks in 100% DMSO, equal amounts of DMSO without any compound are added to positive control and negative control samples.
During the incubation, a mix of the detection reagents is prepared in a buffer such that the enzymatic reaction is terminated due to chelating of Mg-ions and increased ionic strength, containing 50 mM Tris-HCl (pH 7.5), 700 mM NaCl, 20 mM EDTA, and 0.01% (w/v) Tween-20. Europium-streptavidin is pre-incubated with a 200-fold molar excess of a random sequence oligonucleotide to block unspecific binding of oligo, for two hours at ambient temperature in the dark. Afterwards, the blocked Europium-streptavidin is kept on ice until use.
At the end of the enzymatic reaction time, 5 μL detection oligo mix in the detection buffer is added, and assay plates are mixed and kept at ambient temperature for one hour, protected from light. The concentration of the Acceptor nucleotide oligo (e.g., ATTO647N-5′-[…]-3′) and Donor nucleotide oligo (e.g., bio-5′-[…](-bio)[…]-bio-3′) in each assay well is 1 nM, and 3 nM, respectively.
After incubation with oligo mix, 5 μL of pre-blocked Europium-streptavidin reagent is dispensed to each assay well, assay plates are again mixed and kept at ambient temperature for one hour, protected from light.
The generated signal is measured with BMG Pherastar microtiter plate reader with a TRF light unit, using excitation at 340 nm, an integration time of 200 μs, and a delay time of 100 μs, before detection at 620 nm and 665 nm. The ratio of donor- and acceptor-fluorescence is used as a measure of the generated transcript product (i.e. enzymatic activity).
Background: In TR-FRET formats the signal depends on donor and acceptor labels being close together.
In turn, `COC[C@@H](C(=O)N1CCC[C@H](C(=O)O)C1)N(C)c1ccc2c(-c3ccccc3C)cc(=O)oc2c1` (single isomer, unassigned) [Example 121] came in with a half-maximal inhibitory concentration (IC50) of 300 nM.
The same measure for `C[C@H](Cc1ccc2c(-c3ccc(F)cc3Cl)cc(=O)oc2c1)C(=O)N1CCC[C@H](C(=O)O)C1` [Example 187, (S)-1-((R)-3-(4-(2-chloro-4-fluorophenyl)-2-oxo-2H-chromen-7-yl)-2-methylpropanoyl)piperidine-3-carboxylic acid]: 100 nM; for `Cc1ccccc1-c1cc(=O)oc2cc(NCc3ccn[nH]3)ccc12` [Example 169, 7-(((1H-pyrazol-5-yl)methyl)amino)-4-(o-tolyl)-2H-chromen-2-one]: 3000 nM.
The same measure for `CCOC(=O)[C@H]1CCCN(C(=O)C(C)Cc2ccc3c(-c4ccccc4C)cc(=O)oc3c2)C1` (single isomer, unassigned) [Example 87]: 9000 nM.
For `Cc1ccccc1-c1cc(=O)oc2cc([C@H]3C[C@H]3C(=O)N(C)C)ccc12` (relative stereo) [Example 234, (cis)-N,N-dimethyl-2-(2-oxo-4-(o-tolyl)-2H-chromen-7-yl)cyclopropane-1-carboxamide] the value was 3000 nM; for `CC[C@@H](C(=O)O)N(C)c1ccc2c(-c3ccccc3C)cc(=O)oc2c1` [Example 180, (S)-2-(methyl(2-oxo-4-(o-tolyl)-2H-chromen-7-yl)amino)butanoic acid], 200 nM.
In turn, `C[C@H](C(=O)N1CCOCC1)N(C)c1ccc2c(-c3ccc(F)cc3Cl)cc(=O)oc2c1` [Example 55, (R)-4-(2-chloro-4-fluorophenyl)-7-(methyl(1-morpholino-1-oxopropan-2-yl)amino)-2H-chromen-2-one] showed an IC50 of 70 nM.
The same measure for `Cc1ccccc1-c1cc(=O)oc2cc(N(C)CCC(N)=O)ccc12` [Example 133, 3-(methyl(2-oxo-4-(o-tolyl)-2H-chromen-7-yl)amino)propanamide]: 700 nM; for `COCc1ccc2c(-c3ccc(F)cc3Cl)cc(=O)oc2c1` [Example 16, 4-(2-chloro-4-fluorophenyl)-7-(methoxymethyl)-2H-chromen-2-one]: 1000 nM; for `C[C@H](C(=O)N1CCCCC1)N(C)c1ccc2c(-c3ccc(F)cc3Cl)cc(=O)oc2c1` [Example 45, (R)-4-(2-chloro-4-fluorophenyl)-7-(methyl(1-oxo-1-(piperidin-1-yl)propan-2-yl)amino)-2H-chromen-2-one]: 50 nM.
The same measure for `CCOC(C)c1ccc2c(-c3ccc(F)cc3Cl)cc(=O)oc2c1` (single isomer, unassigned) [Example 42, 4-(2-chloro-4-fluorophenyl)-7-(1-ethoxyethyl)-2H-chromen-2-one]: 6000 nM; for `CC(C(N)=O)N(C)c1ccc2c(-c3ccccc3)cc(=O)oc2c1` (centres unmarked) [Example 194, 2-(methyl(2-oxo-4-phenyl-2H-chromen-7-yl)amino)propanamide]: 300 nM.
Consider `Cc1ccccc1-c1cc(=O)oc2cc(C(C)CC(=O)N3CCC[C@H](C(=O)O)C3)ccc12` (single isomer, unassigned) [Example 82], for which the IC50 was found to be 5000 nM.
For `CN(C)c1ccc2c(-c3ccc(F)cc3Cl)cc(=O)oc2c1` [Example 31, 4-(2-chloro-4-fluorophenyl)-7-(dimethylamino)-2H-chromen-2-one] the value was 400 nM; for `Cc1ccccc1-c1cc(=O)oc2cc(C(C)N)ccc12` (centres unmarked) [Example 91, 7-(1-aminoethyl)-4-(o-tolyl)-2H-chromen-2-one], 20000 nM; for `Cc1ccccc1-c1cc(=O)oc2cc(NCc3nnn[nH]3)ccc12` [Example 184, 7-(((1H-tetrazol-5-yl)methyl)amino)-4-(o-tolyl)-2H-chromen-2-one], 3000 nM.
For the molecule `Cc1ccccc1-c1cc(=O)oc2cc(N(C)CC(C)C(=O)O)ccc12` (centres unmarked) [Example 155-2], the IC50 came to 400 nM. Against the preceding molecule, the IC50 is about 7.5-fold lower.
The same measure for `Cc1ccccc1-c1cc(=O)oc2cc(CC(C)C(=O)N3CCC(C(=O)O)CC3)ccc12` (single isomer, unassigned) [Example 94, 1-(2-methyl-3-(2-oxo-4-(o-tolyl)-2H-chromen-7-yl)propanoyl)piperidine-4-carboxylic acid]: 200 nM.
The same measure for `Cc1ccccc1-c1cc(=O)oc2cc(CC(C)C(=O)N3CCC[C@H](S(C)(=O)=O)C3)ccc12` (single isomer, unassigned) [Example 86]: 5000 nM.
For `CNC(=O)C(C)Cc1ccc2c(-c3ccccc3C)cc(=O)oc2c1` (single isomer, unassigned) [Example 67, N,2-dimethyl-3-(2-oxo-4-(o-tolyl)-2H-chromen-7-yl)propanamide] the value was 6000 nM; for `CN(CC(=O)O)c1ccc2c(-c3ccccc3)cc(=O)oc2c1` [Example 101, N-methyl-N-(2-oxo-4-phenyl-2H-chromen-7-yl)glycine], 10000 nM; for `COC[C@H]1CCN(C(=O)c2ccc3c(-c4ccccc4C)cc(=O)oc3c2)C1` [Example 123, (S)-7-(3-(methoxymethyl)pyrrolidine-1-carbonyl)-4-(o-tolyl)-2H-chromen-2-one], 16000 nM.
“3-methoxy-2-((2-oxo-4-phenyl-2H-chromen-7-yl)amino)propanamide [Example 198]” yielded an IC50 of 2000 nM.
`Cc1ccccc1-c1cc(=O)oc2cc(N(C)CC(=O)NCC(F)(F)F)ccc12` [Example 220, 2-(methyl(2-oxo-4-(o-tolyl)-2H-chromen-7-yl)amino)-N-(2,2,2-trifluoroethyl)acetamide] yielded an IC50 of 100 nM.
For `Cc1ccccc1-c1cc(=O)oc2cc(C(=O)N3CCCC(N(C)C)C3)ccc12` (centres unmarked) [Example 170, 7-(3-(dimethylamino)piperidine-1-carbonyl)-4-(o-tolyl)-2H-chromen-2-one] the value was greater than 100000 nM; for `Cc1ccccc1-c1cc(=O)oc2cc(N(C)Cc3ccnn3C)ccc12` [Example 193, 7-(methyl((1-methyl-1H-pyrazol-5-yl)methyl)amino)-4-(o-tolyl)-2H-chromen-2-one], 100 nM.
`Cc1ccccc1-c1cc(=O)oc2cc(NCC3(C(=O)O)CC3)ccc12` [Example 216, 1-(((2-oxo-4-(o-tolyl)-2H-chromen-7-yl)amino)methyl)cyclopropane-1-carboxylic acid] registered a concentration for half-maximal inhibition (IC50) of 600 nM.
The same measure for `C[C@H](C(=O)N(C)C)N(C)c1ccc2c(-c3ccc(F)cc3Cl)cc(=O)oc2c1` [Example 46, (R)-2-((4-(2-chloro-4-fluorophenyl)-2-oxo-2H-chromen-7-yl)(methyl)amino)-N,N-dimethylpropanamide]: 50 nM.
In turn, `Cc1ccccc1-c1cc(=O)oc2cc(CC(C)C(N)=O)ccc12` (single isomer, unassigned) [Example 68, 2-methyl-3-(2-oxo-4-(o-tolyl)-2H-chromen-7-yl)propanamide] displayed an IC50 of 600 nM.
The same measure for `CN(CCC(N)=O)c1ccc2c(-c3ccc(F)cc3Cl)cc(=O)oc2c1` [Example 137, 3-((4-(2-chloro-4-fluorophenyl)-2-oxo-2H-chromen-7-yl)(methyl)amino)propanamide]: 900 nM; for `Cc1ccccc1-c1cc(=O)oc2cc(NCC(C)C(=O)O)ccc12` (single isomer, unassigned) [Example 154-1, 2-methyl-3-((2-oxo-4-(o-tolyl)-2H-chromen-7-yl)amino)propanoic acid]: 1000 nM.
The same measure for `Cc1ccccc1-c1cc(=O)oc2cc(CC(C#N)CO)ccc12` (centres unmarked) [Example 200, 3-hydroxy-2-((2-oxo-4-(o-tolyl)-2H-chromen-7-yl)methyl)propanenitrile]: 3000 nM; for `CCNC(=O)[C@@H](C)N(C)c1ccc2c(-c3ccc(F)cc3Cl)cc(=O)oc2c1` [Example 56, (R)-2-((4-(2-chloro-4-fluorophenyl)-2-oxo-2H-chromen-7-yl)(methyl)amino)-N-ethylpropanamide]: 200 nM; for `CCOC(=O)CCc1ccc2c(-c3ccccc3C)cc(=O)oc2c1` [Example 54, ethyl 3-(2-oxo-4-(o-tolyl)-2H-chromen-7-yl)propanoate]: 900 nM.
For `COC[C@@H](Nc1ccc2c(-c3ccccc3C)cc(=O)oc2c1)C(=O)N1CCC[C@H](C(=O)O)C1` [Example 104, (S)-1-(O-methyl-N-(2-oxo-4-(o-tolyl)-2H-chromen-7-yl)-D-seryl)piperidine-3-carboxylic acid] the value was 300 nM.

For the origin of these results see patent US20250326732A1 (Pretzel Therapeutics, Inc., priority 2021, published 2025).
